For 35 compounds, IC50 results are on record in patent US20050197338A1, “Substituted pyrazole urea compounds for the treatment of inflammation” (priority 2003, published 2005).

Some results are limits rather than exact numbers.

In this test the target is T1, human IKK-2 (rhIKK-2 homodimer) (Homo sapiens, UniProt O14920).
T1 construct: FLAG (DYKDDDDKD) (C); made in house; host or cells: insect cells (baculovirus, pFastBac)
T1 sequence (O14920 1-756): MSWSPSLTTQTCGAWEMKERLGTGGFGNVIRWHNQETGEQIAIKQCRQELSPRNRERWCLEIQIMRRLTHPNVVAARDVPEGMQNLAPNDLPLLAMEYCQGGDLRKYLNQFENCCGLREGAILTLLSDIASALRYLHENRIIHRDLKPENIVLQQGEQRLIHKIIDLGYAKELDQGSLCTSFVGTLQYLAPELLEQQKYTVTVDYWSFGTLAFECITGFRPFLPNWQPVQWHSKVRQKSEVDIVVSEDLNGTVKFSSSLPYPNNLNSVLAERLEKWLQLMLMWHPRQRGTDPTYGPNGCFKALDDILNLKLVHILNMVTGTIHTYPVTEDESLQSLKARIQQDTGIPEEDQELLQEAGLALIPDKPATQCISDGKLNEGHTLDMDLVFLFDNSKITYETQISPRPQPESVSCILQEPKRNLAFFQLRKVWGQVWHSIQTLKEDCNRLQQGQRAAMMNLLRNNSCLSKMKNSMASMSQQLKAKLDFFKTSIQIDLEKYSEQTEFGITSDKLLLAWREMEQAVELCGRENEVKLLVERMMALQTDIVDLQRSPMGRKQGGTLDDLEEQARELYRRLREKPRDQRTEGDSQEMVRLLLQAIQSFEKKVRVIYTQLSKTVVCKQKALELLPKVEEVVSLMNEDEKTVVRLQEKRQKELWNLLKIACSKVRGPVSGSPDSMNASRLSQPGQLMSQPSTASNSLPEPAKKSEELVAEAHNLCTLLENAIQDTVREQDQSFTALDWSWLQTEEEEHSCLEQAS
Description: IKK-2 Resin Enzyme Assay (Human IKK-2 Enzyme Assay). Format: biochemical. Conditions: human IKK-2, resin enzyme assay; read-out: IC50 (μM) hIKK-2. An outline of the steps: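 C-terminally FLAG-tagged human IKK-2 homodimer, baculovirus-expressed in insect cells and anti-FLAG purified. Reaction mix: 5 μM biotinylated IκBα peptide (Ser32/Ser36 region), 1 μM ATP with [γ-33P]ATP, 2 mM MgCl2, 2 mM MnCl2, 10 mM NaF, 1 mM DTT, 25 mM HEPES pH 7.6. Incubated 30 min at 25 °C; IC50 derived.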
Consider `CN(C)C(=O)COc1cccc(-c2ccc(-n3cc(NC(N)=O)c(C(N)=O)n3)cc2)c1` [Example 181, 4-[(aminocarbonyl)amino]-1-{3′-[2-(dimethylamino)-2-oxoethoxy]-1,1′-biphenyl-4-yl}-1H-pyrazole-3-carboxamide], for which the IC50 (in general, the concentration that gives 50% inhibition) came out at 0.105 µM. To `CC(C)(C)OC(=O)COc1ccc(F)cc1-c1ccc(-n2cc(NC(N)=O)c(C(N)=O)n2)cc1` [Example 182, tert-butyl [(4′-{3-(aminocarbonyl)-4-[(aminocarbonyl)amino]-1H-pyrazol-1-yl}-5-fluoro-1,1′-biphenyl-2-yl)oxy]acetate] belongs 11.2 µM; to `NC(=O)Nc1cn(-c2ccc(-c3ccc(C(N)=O)c(F)c3)cc2)nc1C(N)=O` [Example 183, 4-[(aminocarbonyl)amino]-1-[4′-(aminocarbonyl)-3′-fluoro-1,1′-biphenyl-4-yl]-1H-pyrazole-3-carboxamide], 0.13 µM. With `COC(=O)c1ccc(-n2cc(NC(N)=O)c(C(N)=O)n2)cc1` [Example 184, methyl 4-{3-(aminocarbonyl)-4-[(aminocarbonyl)amino]-1H-pyrazol-1-yl}benzoate] the figure was 5.49 µM. For `COC(=O)c1cccc(-n2cc(NC(N)=O)c(C(N)=O)n2)c1` [Example 185, methyl 3-{3-(aminocarbonyl)-4-[(aminocarbonyl)amino]-1H-pyrazol-1-yl}benzoate], the 50% inhibitory concentration (IC50) worked out at 5.88 µM. To `NC(=O)Nc1cn(-c2ccc(Cl)c(Cl)c2)nc1C(N)=O` [Example 188, 4-[(aminocarbonyl)amino]-1-(3,4-dichlorophenyl)-1H-pyrazole-3-carboxamide] belongs 0.46 µM; to `NC(=O)Nc1cn(-c2ccc(SC3CCCCC3)cc2)nc1C(N)=O` [Example 189, 1-(3-carbamoyl-1-(4-(cyclohexylthio)phenyl)-1H-pyrazol-4-yl)urea], 1.04 µM.

On to `NC(=O)Nc1cn(-c2ccc(Sc3ccccc3F)cc2)nc1C(N)=O` [Example 190, 1-(1-(4-(2-fluorophenylthio)phenyl)-3-carbamoyl-1H-pyrazol-4-yl)urea], for which the half-inhibitory concentration (IC50) was 0.831 µM.

For the compound `NC(=O)Nc1cn(-c2ccc([S+]([O-])C3CCCCC3)cc2)nc1C(N)=O` (centres unmarked) [Example 191, 1-(3-carbamoyl-1-(4-(cyclohexylsulfinyl)phenyl)-1H-pyrazol-4-yl)urea], the IC50 is 2.54 µM. For the compound `NC(=O)Nc1cn(-c2ccc([S+]([O-])c3ccccc3F)cc2)nc1C(N)=O` (centres unmarked) [Example 193, 1-(1-(4-(2-fluorophenylsulfinyl)phenyl)-3-carbamoyl-1H-pyrazol-4-yl)urea], the 50% inhibitory concentration (IC50) turned out to be 3.75 µM. To `NC(=O)Nc1cn(-c2cccc(I)c2)nc1C(N)=O` [Example 195, 1-(3-carbamoyl-1-(3-iodophenyl)-1H-pyrazol-4-yl)urea] belongs 0.387 µM; to `NC(=O)Nc1cn(-c2ccc(Sc3ccc(F)cc3)cc2)nc1C(N)=O` [Example 196, 1-(1-(4-(4-fluorophenylthio)phenyl)-3-carbamoyl-1H-pyrazol-4-yl)urea], 0.718 µM. With `NC(=O)Nc1cn(-c2ccc(Sc3cccc(F)c3)cc2)nc1C(N)=O` [Example 197, 1-(1-(4-(3-fluorophenylthio)phenyl)-3-carbamoyl-1H-pyrazol-4-yl)urea] the figure was 0.561 µM; with `NC(=O)Nc1cn(-c2cccc(Sc3ccccc3F)c2)nc1C(N)=O` [Example 198, 1-(1-(3-(2-fluorophenylthio)phenyl)-3-carbamoyl-1H-pyrazol-4-yl)urea], 6.52 µM. To `NC(=O)Nc1cn(-c2ccc(Sc3ccc(O)cc3)cc2)nc1C(N)=O` [Example 199, 1-(1-(4-(4-hydroxyphenylthio)phenyl)-3-carbamoyl-1H-pyrazol-4-yl)urea] belongs 6.56 µM; to `NC(=O)Nc1cn(-c2ccc([S+]([O-])c3ccc(F)cc3)cc2)nc1C(N)=O` (centres unmarked) [Example 200, 1-(1-(4-(4-fluorophenylsulfinyl)phenyl)-3-carbamoyl-1H-pyrazol-4-yl)urea], 0.326 µM. Take `NC(=O)Nc1cn(-c2ccc([S+]([O-])c3cccc(F)c3)cc2)nc1C(N)=O` (centres unmarked) [Example 201, 1-(1-(4-(3-fluorophenylsulfinyl)phenyl)-3-carbamoyl-1H-pyrazol-4-yl)urea]: the IC50 was 0.532 µM. With `NC(=O)Nc1cn(-c2cccc([S+]([O-])c3ccccc3F)c2)nc1C(N)=O` (centres unmarked) [Example 202, 1-(1-(3-(2-fluorophenylsulfinyl)phenyl)-3-carbamoyl-1H-pyrazol-4-yl)urea] the figure was 5.97 µM; with `NC(=O)Nc1cn(-c2ccc(S(=O)(=O)c3cccc(F)c3)cc2)nc1C(N)=O` [Example 203, 1-(1-(4-(3-fluorophenylsulfonyl)phenyl)-3-carbamoyl-1H-pyrazol-4-yl)urea], 0.153 µM. To `NC(=O)Nc1cn(-c2ccc(Sc3ccncc3)cc2)nc1C(N)=O` [Example 206, 1-(3-carbamoyl-1-(4-(pyridin-4-ylthio)phenyl)-1H-pyrazol-4-yl)urea] belongs 0.0514 µM; to `NC(=O)Nc1cn(-c2ccc(SC3CCCC3)cc2)nc1C(N)=O` [Example 207, 1-(3-carbamoyl-1-(4-(cyclopentylthio)phenyl)-1H-pyrazol-4-yl)urea], 1.32 µM; to `NC(=O)Nc1cn(-c2ccc(Sc3ccccc3O)cc2)nc1C(N)=O` [Example 208, 1-(1-(4-(2-hydroxyphenylthio)phenyl)-3-carbamoyl-1H-pyrazol-4-yl)urea], 0.328 µM. With `NC(=O)Nc1cn(-c2ccc(Sc3ccccc3F)cc2F)nc1C(N)=O` [Example 211, 1-(1-(4-(2-fluorophenylthio)-2-fluorophenyl)-3-carbamoyl-1H-pyrazol-4-yl)urea] the figure was 10.5 µM. As to `NC(=O)Nc1cn(-c2ccc(F)cc2)nc1C(N)=O` [Example 212, 4-[(aminocarbonyl)amino]-1-(4-fluorophenyl)-1H-pyrazole-3-carboxamide], the IC50 was determined as 0.844 µM. To `NC(=O)Nc1cn(-c2ccc3c(c2)OCO3)nc1C(N)=O` [Example 213, 4-[(aminocarbonyl)amino]-1-(1,3-benzodioxol-5-yl)-1H-pyrazole-3-carboxamide] belongs 3.91 µM; to `NC(=O)Nc1cn(-c2ccc(Cl)cc2)nc1C(N)=O` [Example 214, 4-[(aminocarbonyl)amino]-1-(4-chlorophenyl)-1H-pyrazole-3-carboxamide], 0.382 µM. With `CC(C)c1ccc(-n2cc(NC(N)=O)c(C(N)=O)n2)cc1` [Example 216, 4-[(aminocarbonyl)amino]-1-(4-isopropylphenyl)-1H-pyrazole-3-carboxamide] the figure was 0.159 µM; with `NC(=O)Nc1cn(-c2ccc(F)c(F)c2)nc1C(N)=O` [Example 218, 4-[(aminocarbonyl)amino]-1-(3,4-difluorophenyl)-1H-pyrazole-3-carboxamide], 1.31 µM; with `NC(=O)Nc1cn(-c2ccc3ccccc3c2)nc1C(N)=O` [Example 219, 4-[(aminocarbonyl)amino]-1-(2-naphthyl)-1H-pyrazole-3-carboxamide], 0.175 µM. With `N#CCOc1cccc(-c2ccc(-n3cc(NC(N)=O)c(C(N)=O)n3)cc2Cl)c1` [Example 220, 4-[(aminocarbonyl)amino]-1-[2-chloro-3′-(cyanomethoxy)-1,1′-biphenyl-4-yl]-1H-pyrazole-3-carboxamide] the figure was 1.57 µM; with `NC(=O)Nc1cn(-c2ccc(Sc3ccc(F)cc3)c(Cl)c2)nc1C(N)=O` [Example 221, 4-[(aminocarbonyl)amino]-1-{3-chloro-4-[(4-fluorophenyl)thio]phenyl}-1H-pyrazole-3-carboxamide], 2.6 µM; with `NC(=O)Nc1cn(-c2ccc(S(=O)(=O)c3ccc(F)cc3)c(Cl)c2)nc1C(N)=O` [Example 222, 4-[(aminocarbonyl)amino]-1-{3-chloro-4-[(4-fluorophenyl)sulfonyl]phenyl}-1H-pyrazole-3-carboxamide], > 20 µM. `NC(=O)Nc1cn(-c2ccc(-c3ccccc3O)c(Cl)c2)nc1C(N)=O` [Example 223, 4-[(aminocarbonyl)amino]-1-(2-chloro-2′-hydroxy-1,1′-biphenyl-4-yl)-1H-pyrazole-3-carboxamide]: the concentration for half-maximal inhibition (IC50) is 1.15 µM. To `N#CCOc1ccccc1-c1ccc(-n2cc(NC(N)=O)c(C(N)=O)n2)cc1Cl` [Example 224, 4-[(aminocarbonyl)amino]-1-[2-chloro-2′-(cyanomethoxy)-1,1′-biphenyl-4-yl]-1H-pyrazole-3-carboxamide] belongs 0.327 µM; to `NC(=O)Nc1cn(-c2ccc(-c3cccc(O)c3)c(F)c2)nc1C(N)=O` [Example 226, 4-[(aminocarbonyl)amino]-1-(2-fluoro-3′-hydroxy-1,1′-biphenyl-4-yl)-1H-pyrazole-3-carboxamide], 1.06 µM.
